In ChEMBL document CHEMBL3120075 (J Med Chem, 2014):

Key:
Hepatitis C virus [1] = assay: Antiviral activity against HCV genotype 1a H77 infected in human HuH7 cells assessed as inhibition of viral RNA replication after 3 days by renilla luciferase reporter gene assay; assay type: functional, organism-based, Hepacivirus hominis; details: genotype 1a H77, Huh-7, 72 h
Hepatitis C virus [2] = assay: Antiviral activity against HCV genotype 1b Con1 infected in human HuH7 cells assessed as inhibition of viral RNA replication after 3 days by renilla luciferase reporter gene assay; assay type: functional, organism-based, Hepacivirus hominis; details: isolate Con1, Huh-7, 72 h
[3] = Ratio of EC50 for HCV genotype 1a to EC50 for HCV genotype 1b; assay type: functional
[4] = Volume of distribution at steady state in beagle dog at 0.2 mg/kg, iv; assay type: ADME, organism-based, Canis lupus familiaris; set-up: dose 0.2 mg/kg, route intravenous; details: in vivo, read-out: Vdss
[5] = Half life in beagle dog at 0.2 mg/kg, iv; assay type: ADME, organism-based, Canis lupus familiaris; set-up: dose 0.2 mg/kg, route intravenous; details: in vivo
[6] = Volume of distribution at steady state in Sprague-Dawley rat at 1 mg/kg, iv; assay type: ADME, organism-based; set-up: dose 1 mg/kg, route intravenous; details: in vivo, read-out: Vdss
[7] = Mean residence time in beagle dog at 0.2 mg/kg, iv; assay type: ADME, organism-based, Canis lupus familiaris; set-up: dose 0.2 mg/kg, route intravenous; details: in vivo
[8] = Oral bioavailability in Sprague-Dawley rat at 2 mg/kg; assay type: ADME, organism-based; details: in vivo
[9] = Half life in Sprague-Dawley rat at 1 mg/kg, iv; assay type: ADME, organism-based; set-up: dose 1 mg/kg, route intravenous; details: in vivo
[10] = Clearance in Sprague-Dawley rat at 1 mg/kg, iv; assay type: ADME, organism-based; set-up: dose 1 mg/kg, route intravenous; details: in vivo
[11] = Clearance in beagle dog at 0.2 mg/kg, iv; assay type: ADME, organism-based, Canis lupus familiaris; set-up: dose 0.2 mg/kg, route intravenous; details: in vivo
[12] = Mean residence time in Sprague-Dawley rat at 1 mg/kg, iv; assay type: ADME, organism-based; set-up: dose 1 mg/kg, route intravenous; details: in vivo
Hepatitis C virus [13] = assay: Ratio of EC50 for HCV genotype 1a H77 infected in human HuH7 cells in presence of 10% BSA to EC50 for HCV genotype 1a H77 infected in human HuH7 cells; assay type: functional, Hepacivirus hominis, Huh-7
Hepatitis C virus [14] = assay: Antiviral activity against HCV genotype 1a H77 infected in human HuH7 cells assessed as inhibition of viral RNA replication after 3 days by renilla luciferase reporter gene assay in presence of human serum; assay type: functional, organism-based, Hepacivirus hominis; details: genotype 1a H77, Huh-7, 72 h
Hepatitis C virus [15] = assay: Ratio of EC50 for HCV genotype 1a H77 infected in human HuH7 cells in presence of human serum to EC50 for HCV genotype 1a H77 infected in human HuH7 cells; assay type: functional, Hepacivirus hominis, Huh-7
Hepatitis C virus [16] = assay: Antiviral activity against HCV genotype 1a H77 infected in human HuH7 cells assessed as inhibition of viral RNA replication after 3 days by renilla luciferase reporter gene assay in presence of 10% BSA; assay type: functional, organism-based, Hepacivirus hominis; details: genotype 1a H77, Huh-7, 72 h

SMILES: COC(=O)N[C@H](C(=O)N1CCC[C@H]1c1nc2ccc(-c3cc4cc5sc(-c6ccc7nc([C@@H]8CCCN8C(=O)[C@@H](NC(=O)OC)C(C)C)[nH]c7c6)cc5cc4s3)cc2[nH]1)C(C)C
- EC50 (Hepatitis C virus [1]): 0.2 nM
- EC50 (Hepatitis C virus [2]): 0.016 nM

SMILES: COC(=O)N[C@H](C(=O)N1CCC[C@H]1c1ncc(-c2ccc3c(c2)Cc2cc(-c4cnc([C@@H]5CCCN5C(=O)[C@@H](NC(=O)OC)C(C)C)[nH]4)ccc2-3)[nH]1)C(C)C
- EC50 (Hepatitis C virus [1]): 0.094 nM
- EC50 (Hepatitis C virus [2]): 0.013 nM

SMILES: C[C@H](NC(=O)OCc1ccccc1)C(=O)Nc1cccc(C2S/C(=N\c3cccc(F)c3)N(Cc3ccco3)C2=O)c1 (stereo not given in full)
- Ratio EC50 [3]: 1000
- EC50 (Hepatitis C virus [2]): 580 nM

SMILES: COC(=O)N[C@H](C(=O)N1CCC[C@H]1c1nc(-c2ccc3cc(-c4ccc5[nH]c([C@@H]6CCCN6C(=O)[C@@H](NC(=O)OC)C(C)C)nc5c4)ccc3c2)c[nH]1)C(C)C
- EC50 (Hepatitis C virus [1]): 0.071 nM
- EC50 (Hepatitis C virus [2]): 0.007 nM

SMILES: CN(C)[C@@H](C(=O)N1CCC[C@H]1C(=O)Nc1ccc(/C=C/c2ccc(NC(=O)[C@@H]3CCCN3C(=O)[C@@H](c3ccccc3)N(C)C)cc2)cc1)c1ccccc1
- EC50 (Hepatitis C virus [2]): 0.1 nM

SMILES: COC(=O)N[C@H](C(=O)N1CCC[C@H]1c1ncc(-c2ccc3c(c2)C(C)(C)c2cc(-c4cnc([C@@H]5CCCN5C(=O)[C@@H](NC(=O)OC)C(C)C)[nH]4)ccc2-3)[nH]1)C(C)C
- EC50 (Hepatitis C virus [1]): 1.2 nM
- EC50 (Hepatitis C virus [2]): 0.014 nM

SMILES: COC(=O)N[C@H](C(=O)N1CCC[C@H]1c1nc2ccc(-c3ccc4cc(-c5ccc6nc([C@@H]7CCCN7C(=O)[C@@H](NC(=O)OC)C(C)C)[nH]c6c5)ccc4c3)cc2[nH]1)C(C)C
- EC50 (Hepatitis C virus [1]): 0.11 nM
- EC50 (Hepatitis C virus [2]): 0.004 nM

SMILES: COC(=O)N[C@H](C(=O)N1CCC[C@H]1c1ncc(-c2ccc(-c3ccc4nc([C@@H]5CCCN5C(=O)[C@@H](NC(=O)OC)C(C)C)[nH]c4c3)cc2)[nH]1)C(C)C
- EC50 (Hepatitis C virus [1]): > 44 nM
- EC50 (Hepatitis C virus [2]): 0.3 nM

SMILES: COC(=O)N[C@H](C(=O)N1CCC[C@H]1c1nc2ccc(-c3ccc(-c4ccc5nc([C@@H]6CCCN6C(=O)[C@@H](NC(=O)OC)C(C)C)[nH]c5c4)s3)cc2[nH]1)C(C)C
- EC50 (Hepatitis C virus [1]): 1.7 nM
- EC50 (Hepatitis C virus [2]): 0.01 nM

SMILES: C[C@H](NC(=O)c1ccc(Sc2ccc(N)cc2)c(Nc2ncnc3nc(C(C)(C)C)ccc23)c1)c1ccccc1
- EC50 (Hepatitis C virus [1]): 46 nM
- EC50 (Hepatitis C virus [2]): 3 nM

SMILES: COC(=O)N[C@H](C(=O)N1CCC[C@H]1c1ncc(C#Cc2ccc(-c3ccc4nc([C@@H]5CCCN5C(=O)[C@@H](NC(=O)OC)C(C)C)[nH]c4c3)cc2)[nH]1)C(C)C
- EC50 (Hepatitis C virus [1]): 2.5 nM
- EC50 (Hepatitis C virus [2]): 0.016 nM

SMILES: COC(=O)N[C@H](C(=O)N1CCC[C@H]1c1ncc(-c2ccc(-c3ccc(-c4ccc5nc([C@@H]6[C@H]7CC[C@H](C7)N6C(=O)[C@@H](NC(=O)OC)C(C)C)[nH]c5c4)cc3)cc2)[nH]1)C(C)C
- Vd [4]: 2.03 L/kg
- half-life [5]: 4.01 h
- Vd [6]: 1.81 L/kg
- MRT [7]: 5.47 h
- EC50 (Hepatitis C virus [1]): 0.16 nM
- bioavailability [8]: 26.3%
- half-life [9]: 2.07 h
- EC50 (Hepatitis C virus [2]): 0.006 nM
- clearance [10]: 12.5 mL/min/kg
- clearance [11]: 6.67 mL/min/kg
- MRT [12]: 2.42 h

SMILES: O=C(Nc1ccncc1)c1ccc(-c2csc(NC(=O)[C@@H]3CCCN3C(=O)OCc3ccccc3)n2)cc1
- Ratio EC50 [3]: 1000
- EC50 (Hepatitis C virus [2]): 80 nM

SMILES: COC(=O)N[C@H](C(=O)N1CCC[C@H]1c1ncc(-c2ccc(-c3ccc(-c4ccc5nc([C@@H]6CCCN6C(=O)[C@@H](NC(=O)OC)C(C)C)[nH]c5c4)cc3)cc2)[nH]1)C(C)C
- Vd [4]: 2.31 L/kg
- half-life [5]: 2.3 h
- Vd [6]: 1.76 L/kg
- MRT [7]: 3 h
- EC50 (Hepatitis C virus [1]): 0.17 nM
- bioavailability [8]: 11.5%
- half-life [9]: 1.57 h
- EC50 (Hepatitis C virus [2]): 0.007 nM
- clearance [10]: 17.3 mL/min/kg
- clearance [11]: 13 mL/min/kg
- MRT [12]: 1.71 h

SMILES: COC(=O)N[C@H](C(=O)N1CCC[C@H]1c1nc2ccc(-c3ccc(-c4ccc(-c5ccc6nc([C@@H]7CCCN7C(=O)[C@@H](NC(=O)OC)C(C)C)[nH]c6c5)cc4)cc3)cc2[nH]1)C(C)C
- EC50 (Hepatitis C virus [1]): 3.7 nM
- EC50 (Hepatitis C virus [2]): 0.044 nM

SMILES: COC(=O)N[C@H](C(=O)N1CCC[C@H]1c1ncc(-c2ccc(C#Cc3ccc4nc([C@@H]5CCCN5C(=O)[C@@H](NC(=O)OC)C(C)C)[nH]c4c3)cc2)[nH]1)C(C)C
- EC50 (Hepatitis C virus [1]): 0.38 nM
- EC50 (Hepatitis C virus [2]): 0.011 nM

SMILES: COC(=O)N[C@H](C(=O)N1CCC[C@H]1c1nc2ccc(-c3ccc4nc([C@@H]5CCCN5C(=O)[C@@H](NC(=O)OC)C(C)C)[nH]c4c3)cc2[nH]1)C(C)C
- EC50 (Hepatitis C virus [1]): > 44 nM
- EC50 (Hepatitis C virus [2]): 35 nM

SMILES: COC(=O)N[C@H](C(=O)N1CCC[C@H]1c1ncc(-c2ccc3c(c2)C(F)(F)c2cc(-c4ccc5nc([C@@H]6[C@H]7CC[C@H](C7)N6C(=O)[C@@H](NC(=O)OC)C(C)C)[nH]c5c4)ccc2-3)[nH]1)C(C)C
- EC50 (Hepatitis C virus [1]): 0.056 nM
- EC50 (Hepatitis C virus [2]): 0.004 nM
- Ratio EC50 (Hepatitis C virus [13]): 14
- EC50 (Hepatitis C virus [14]): 0.784 nM
- Ratio EC50 (Hepatitis C virus [15]): 14
- EC50 (Hepatitis C virus [16]): 0.784 nM

SMILES: COC(=O)N[C@H](C(=O)N1CCC[C@H]1c1nc2ccc(-c3ccc(-c4ccc5nc([C@@H]6CCCN6C(=O)[C@@H](NC(=O)OC)C(C)C)[nH]c5c4)cc3)cc2[nH]1)C(C)C
- EC50 (Hepatitis C virus [1]): 0.5 nM
- EC50 (Hepatitis C virus [2]): 0.009 nM

SMILES: COC(=O)N[C@H](C(=O)N1CCC[C@H]1c1nc2ccc(-c3ccc(-c4ccc(-c5cnc([C@@H]6[C@H]7CC[C@H](C7)N6C(=O)[C@@H](NC(=O)OC)C(C)C)[nH]5)cc4)cc3)cc2[nH]1)C(C)C
- EC50 (Hepatitis C virus [1]): 0.66 nM
- EC50 (Hepatitis C virus [2]): 0.021 nM

SMILES: COC(=O)N[C@H](C(=O)N1CCC[C@H]1c1ncc(-c2ccc3c(c2)C(F)(F)c2cc(-c4ccc5nc([C@@H]6CCCN6C(=O)[C@@H](NC(=O)OC)C(C)C)[nH]c5c4)ccc2-3)[nH]1)C(C)C
- Vd [4]: 1.96 L/kg
- half-life [5]: 2.63 h
- Vd [6]: 0.93 L/kg
- MRT [7]: 3.69 h
- EC50 (Hepatitis C virus [1]): 0.04 nM
- bioavailability [8]: 36.7%
- half-life [9]: 1.83 h
- EC50 (Hepatitis C virus [2]): 0.003 nM
- clearance [10]: 7 mL/min/kg
- clearance [11]: 8.83 mL/min/kg
- MRT [12]: 2.21 h

SMILES: COC(=O)N[C@H](C(=O)N1CCC[C@H]1c1ncc(-c2ccc(-c3ccc(-c4cnc([C@@H]5[C@H]6CC[C@H](C6)N5C(=O)[C@@H](NC(=O)OC)C(C)C)[nH]4)cc3)cc2)[nH]1)C(C)C
- Vd [4]: 0.31 L/kg
- half-life [5]: 5.29 h
- Vd [6]: 0.98 L/kg
- MRT [7]: 6.6 h
- EC50 (Hepatitis C virus [1]): 0.21 nM
- bioavailability [8]: 35.2%
- half-life [9]: 1.49 h
- EC50 (Hepatitis C virus [2]): 0.009 nM
- clearance [10]: 11.7 mL/min/kg
- clearance [11]: 0.833 mL/min/kg
- MRT [12]: 1.4 h

SMILES: COC(=O)N[C@H](C(=O)N1CCCC[C@H]1c1ncc(-c2ccc(-c3ccc(-c4cnc([C@@H]5CCCN5C(=O)[C@@H](NC(=O)OC)C(C)C)[nH]4)cc3)cc2)[nH]1)C(C)C
- EC50 (Hepatitis C virus [1]): 0.45 nM
- EC50 (Hepatitis C virus [2]): 0.005 nM

SMILES: COC(=O)N[C@H](C(=O)N1CCC[C@H]1c1ncc(-c2ccc(-c3ccc(-c4ccc5nc([C@@H]6CCCN6C(=O)[C@@H](NC(=O)OC)C(C)C)[nH]c5c4)s3)cc2)[nH]1)C(C)C
- EC50 (Hepatitis C virus [1]): 0.2 nM
- EC50 (Hepatitis C virus [2]): 0.003 nM

SMILES: COC(=O)N[C@H](C(=O)N1CCC[C@H]1c1ncc(-c2ccc3c(c2)C(=O)c2cc(-c4cnc([C@@H]5CCCN5C(=O)[C@@H](NC(=O)OC)C(C)C)[nH]4)ccc2-3)[nH]1)C(C)C
- EC50 (Hepatitis C virus [1]): 0.3 nM
- EC50 (Hepatitis C virus [2]): 0.018 nM

SMILES: COC(=O)N[C@H](C(=O)N1CCC[C@H]1c1nc2ccc(C#Cc3ccc4nc([C@@H]5CCCN5C(=O)[C@@H](NC(=O)OC)C(C)C)[nH]c4c3)cc2[nH]1)C(C)C
- EC50 (Hepatitis C virus [1]): > 44 nM
- EC50 (Hepatitis C virus [2]): 0.14 nM

SMILES: Cc1ccc(O)c(-c2nn(C)cc2C#Cc2ccc(NC(=O)[C@@H]3COCCN3C(=O)[C@H](NC(=O)OC(C)(C)C)c3ccccc3)cc2)c1
- Ratio EC50 [3]: 1000
- EC50 (Hepatitis C virus [2]): < 1000 nM

SMILES: COC(=O)N[C@H](C(=O)N1CCC[C@H]1c1nc2ccc(C#CC#Cc3ccc4nc([C@@H]5CCCN5C(=O)[C@@H](NC(=O)OC)C(C)C)[nH]c4c3)cc2[nH]1)C(C)C
- EC50 (Hepatitis C virus [1]): 11 nM
- EC50 (Hepatitis C virus [2]): 0.026 nM
